Counter-ions that a name gives are not always drawn.
Tested on: lipoperoxide produced in brain homogenate
Experiment: Inhibitory effect on lipid peroxidation in rat cerebral cortical homogenates (thiobarbituric acid method)
Format: biochemical
Conditions: rat cerebral cortical homogenate supernatant, 37° C. for 30 minutes, absorbance at 532 nm
Procedure: Inhibitory Effect on Lipid Peroxidation in Rat Cerebral Cortical Homogenates and Orally Treated Mice
Quantitative determination of lipoperoxide produced in brain homogenate was performed according to the method of Stocks et al. (Clin. Sci. Mol. Med. 47-215(1974)). As animals, brains of Jcl. Wistar male rats, 10-13 weeks age, were used. Rat cerebral cortices were obtained after decapitation, homogenized in an ice-cooled phosphate saline buffer (50 mM Ph 7.4) (Nichion Microhomogenizer, S-310E), centrifuged at 10,000 g for 10 minutes (Hitachi CF15D type, RT15A6 Anglerotor), and the supernatant was used in a test. This supernatant was diluted 3-fold with the same buffer. To this 1 mL were added […] of test drugs dissolved in dimethyl sulfoxide (DMSO) to the final concentration of 0.0125, 0.025, 0.05, 0.10, 0.20, 0.40, 0.80 and 1.60 μM, respectively, which was incubated at 37° C. for 30 minutes. The reaction was stopped by addition of 200 μL of 35% perchloric acid, and centrifuged at 13,000 g for 10 minutes. To 1 mL of this supernatant was added 0.5 mL of 2-thiobarbituric acid (500 mg/100 mL) dissolved in 50% acetic acid, heated to boil at 95° C. for 15 minutes, which was determined by the absorbance at 532 nm. […]

IC50 [nM] | SMILES
67 | Cc1c2c(c(C)c3c1NCC3)OC(C)(CN1CCC(c3ccccc3)CC1)C2 (centres unmarked) [Example 11, 3,5,6,7-Tetrahydro-2,4,8-trimethyl-2-[(4-phenylpiperidino)methyl]-2H-furo[2,3-f]indole]
360 | Cc1c2c(c(C)c3c1NCC3)OC(C)(CN1CCC(NC(c3ccccc3)c3ccccc3)CC1)C2 (centres unmarked) [Example 18, N-(Diphenylmethyl)-1-[(3,5,6,7-tetrahydro-2,4,8-trimethyl-2H-furo[2,3-f]indol-2-yl)methyl]-4-piperidinamine trihydrochloride]

Reference: patent US6872718B1, “Tricyclic dihydrobenzofuran derivatives, process for the preparation thereof and agents” (Takeda Chemical Industries, Ltd., priority 1999, dated 2005)
